# Measured values taken from patent publication US20200017495A1, “NOVEL HETEROCYCLIC COMPOUNDS AND THEIR USE IN PREVENTING OR TREATING BACTERIAL INFECTIONS” (priority 2017, published 2020).
# Read-outs that look alike come from different tables or passages of the source.
# Legend:
# Assay in all cases: MIC of compounds alone and combined with antibacterials, broth microdilution (CLSI)
# Type in all cases: cell-based
# [1] = tested on: Citrobacter koseri (CKR) isolates; settings: Citrobacter koseri, alone, read-out: MIC
# Experimental: (§1) Method 2: MIC of Compounds Alone and Combined with Antibacterials Against Bacterial Isolates
# (§2) Compounds of the present invention were assessed against genotyped bacterial strains (Table 3, 4) alone or in combination with an antibacterial (Table 2). […] Log phase bacterial suspensions were adjusted to a final density of 5.10^5 CFU/mL in cation-adjusted Mueller-Hinton broth (ca-MHB; Becton-Dickinson and Company) and added to each well (98 μL). Microplates were incubated for 16-20 h at 35° C. in ambient air. The MIC of the compounds was defined as the lowest concentration of said compounds that prevented bacterial growth as read by visual inspection. The MIC of ATB at each compound concentration was defined as the lowest concentration of ATB that prevented bacterial growth as read by visual inspection.
# [2] = tested on: Serratia marcescens (SMA) isolates; settings: Serratia marcescens, read-out: MIC
# Experimental: as §1, §2
# [3] = tested on: Enterobacter aerogenes (EAE) isolates; settings: Klebsiella aerogenes, alone, read-out: MIC
# Experimental: as §1, §2
# [4] = tested on: Citrobacter freundii (CFR) isolates; settings: Citrobacter freundii
# Experimental: as §1, §2
# [5] = tested on: Klebsiella oxytoca (KOX) isolates; settings: Klebsiella oxytoca, alone, read-out: MIC
# Experimental: as §1, §2
# [6] = tested on: Morganella morganii (MMO) isolates; settings: Morganella morganii, read-out: MIC
# Experimental: as §1, §2
# [7] = strain SMA UFR140, compound alone
# [8] = strain SMA UFR238, compound alone
# [9] = strain CFR UFR251, compound alone, read-out: MIC
# [10] = strain MMO UFR145, compound alone
smiles,measurement,setting,value
O=C1N2CC(c3ncco3)=CC(C2)N1OC(F)(F)C(=O)[O-].[Li+] (stereo not shown) [AF2],MIC,[1]; CKO ROU,16 µg/mL
same,MIC,[1]; CKO UFR149,16 µg/mL
same,MIC,[1]; CKO UFR150,> 32 µg/mL
same,MIC,"[2]; SMA UFR30, alone",16 µg/mL
same,MIC,"[2]; SMA UFR134, alone",16 µg/mL
same,MIC,"[2]; SMA UFR135, alone",> 32 µg/mL
same,MIC,"[2]; SMA UFR136, alone",> 32 µg/mL
same,MIC,"[2]; SMA UFR137, alone",16 µg/mL
same,MIC,"[2]; SMA UFR138, alone",16 µg/mL
same,MIC,"[2]; SMA UFR139, alone",> 32 µg/mL
same,MIC,"[2]; SMA UFR141, alone",> 32 µg/mL
same,MIC,"[2]; SMA UFR142, alone",32 µg/mL
same,MIC,"[2]; SMA UFR143, alone",32 µg/mL
same,MIC,"[2]; SMA UFR239, alone",32 µg/mL
same,MIC,[2]; [7],> 32 µg/mL
same,MIC,[2]; [8],16 µg/mL
same,MIC,[3]; EAE 49469,8 µg/mL
same,MIC,[3]; EAE 200261,16 µg/mL
same,MIC,[3]; EAE UFR199,16 µg/mL
same,MIC,[3]; EAE UFR201,4 µg/mL
same,MIC,[3]; EAE UFR202,32 µg/mL
same,MIC,[3]; EAE UFR207,4 µg/mL
same,MIC,[3]; EAE UFR213,16 µg/mL
same,MIC,"[4]; CFR UFR10, alone",4 µg/mL
same,MIC,"[4]; CFR UFR11, alone",> 32 µg/mL
same,MIC,"[4]; CFR UFR37, alone",4 µg/mL
same,MIC,"[4]; CFR UFR83, alone",> 32 µg/mL
same,MIC,"[4]; CFR UFR146, alone",32 µg/mL
same,MIC,"[4]; CFR UFR248, alone",8 µg/mL
same,MIC,"[4]; strain CFR UFR147, compound alone",8 µg/mL
same,MIC,"[4]; strain CFR UFR148, compound alone",8 µg/mL
same,MIC,[4]; [9],16 µg/mL
same,MIC,"[4]; strain CFR UFR254, compound alone",4 µg/mL
same,MIC,[5]; KOX UFR21,16 µg/mL
same,MIC,[5]; KOX UFR173,16 µg/mL
same,MIC,[5]; KOX UFR223,8 µg/mL
same,MIC,[5]; KOX UFR224,8 µg/mL
same,MIC,"[6]; MMO 200321, alone",32 µg/mL
same,MIC,"[6]; MMO UFR144, alone",> 32 µg/mL
same,MIC,"[6]; MMO UFR240, alone",> 32 µg/mL
same,MIC,"[6]; MMO UFR241, alone",> 32 µg/mL
same,MIC,"[6]; MMO UFR242, alone",> 32 µg/mL
same,MIC,"[6]; MMO UFR243, alone",> 32 µg/mL
same,MIC,"[6]; MMO UFR244, alone",> 32 µg/mL
same,MIC,"[6]; MMO UFR245, alone",> 32 µg/mL
same,MIC,"[6]; MMO UFR246, alone",> 32 µg/mL
same,MIC,"[6]; MMO UFR247, alone",32 µg/mL
same,MIC,[6]; [10],> 32 µg/mL
O=C1N2CC(n3cccn3)=CC(C2)N1OC(F)(F)C(=O)[O-].[Li+] (stereo not shown) [AF3],MIC,[1]; CKO ROU,32 µg/mL
same,MIC,[1]; CKO UFR149,16 µg/mL
same,MIC,[1]; CKO UFR150,> 32 µg/mL
same,MIC,"[2]; SMA UFR30, alone",8 µg/mL
same,MIC,"[2]; SMA UFR134, alone",32 µg/mL
same,MIC,"[2]; SMA UFR135, alone",> 32 µg/mL
same,MIC,"[2]; SMA UFR136, alone",> 32 µg/mL
same,MIC,"[2]; SMA UFR137, alone",32 µg/mL
same,MIC,"[2]; SMA UFR138, alone",16 µg/mL
same,MIC,"[2]; SMA UFR139, alone",32 µg/mL
same,MIC,"[2]; SMA UFR141, alone",32 µg/mL
same,MIC,"[2]; SMA UFR142, alone",> 32 µg/mL
same,MIC,"[2]; SMA UFR143, alone",32 µg/mL
same,MIC,"[2]; SMA UFR239, alone",16 µg/mL
same,MIC,[2]; [7],> 32 µg/mL
same,MIC,[2]; [8],32 µg/mL
same,MIC,[3]; EAE 49469,8 µg/mL
same,MIC,[3]; EAE 200261,8 µg/mL
same,MIC,[3]; EAE UFR199,16 µg/mL
same,MIC,[3]; EAE UFR201,8 µg/mL
same,MIC,[3]; EAE UFR202,32 µg/mL
same,MIC,[3]; EAE UFR207,8 µg/mL
same,MIC,[3]; EAE UFR213,16 µg/mL
same,MIC,"[4]; CFR UFR10, alone, read-out: MIC",16 µg/mL
same,MIC,"[4]; CFR UFR11, alone, read-out: MIC",> 32 µg/mL
same,MIC,"[4]; CFR UFR37, alone, read-out: MIC",8 µg/mL
same,MIC,"[4]; CFR UFR83, alone, read-out: MIC",> 32 µg/mL
same,MIC,"[4]; CFR UFR146, alone, read-out: MIC",32 µg/mL
same,MIC,"[4]; CFR UFR248, alone, read-out: MIC",8 µg/mL
same,MIC,"[4]; CFR UFR249, alone, read-out: MIC",8 µg/mL
same,MIC,"[4]; CFR UFR250, alone, read-out: MIC",16 µg/mL
same,MIC,"[4]; strain CFR UFR147, compound alone, read-out: MIC",4 µg/mL
same,MIC,"[4]; strain CFR UFR148, compound alone, read-out: MIC",16 µg/mL
same,MIC,[4]; [9],8 µg/mL
same,MIC,"[4]; strain CFR UFR252, compound alone, read-out: MIC",32 µg/mL
same,MIC,"[4]; strain CFR UFR253, compound alone, read-out: MIC",32 µg/mL
same,MIC,"[4]; strain CFR UFR254, compound alone, read-out: MIC",32 µg/mL
same,MIC,[5]; KOX UFR21,> 32 µg/mL
same,MIC,[5]; KOX UFR173,16 µg/mL
same,MIC,[5]; KOX UFR223,8 µg/mL
same,MIC,[5]; KOX UFR224,8 µg/mL
same,MIC,"[6]; MMO 200321, alone",32 µg/mL
same,MIC,"[6]; MMO UFR144, alone",32 µg/mL
same,MIC,"[6]; MMO UFR240, alone",> 32 µg/mL
same,MIC,"[6]; MMO UFR241, alone",32 µg/mL
same,MIC,"[6]; MMO UFR242, alone",32 µg/mL
same,MIC,"[6]; MMO UFR243, alone",> 32 µg/mL
same,MIC,"[6]; MMO UFR244, alone",> 32 µg/mL
same,MIC,"[6]; MMO UFR245, alone",32 µg/mL
same,MIC,"[6]; MMO UFR246, alone",32 µg/mL
same,MIC,"[6]; MMO UFR247, alone",16 µg/mL
same,MIC,[6]; [10],> 32 µg/mL
